Data reported in article PMC7352571, “New Anti-Cancer Strategy to Suppress Colorectal Cancer Growth Through Inhibition of ATG4B and Lysosome Function” (Cancers, 2020).

Legend:
caspase-3 = biological target: T1, caspase-3 (Homo sapiens, UniProt P42574); experiment: caspase-3 activity assay (Ac-DEVE-AFC cleavage in lysate of staurosporine-treated HeLa cells); assay type: biochemical; settings: even at a concentration of 50 µM
T1 construct: endogenous in cells; host or cells: HeLa (staurosporine-treated, whole cell lysate)
Experimental: . (B) Predicted binding model of compound XOS00163, XOS00201, and XOS00207 bind to ATG4B (PDB ID: 2CY7) pocket. […] . […] . HeLa cells were treated with 1 µM of staurosporine (SP) for 12 h to induce cell apoptosis. Then, 2 µg of the whole cell lysate were mixed with indicated compounds at 37° for 30 min, Ac-DEVE-AFC (25 µM) were then added to a volume of 50 µL, and the emission of 505 nm for AFC was recorded. […] |

A549 cells = experiment: CCK-8 cell viability assay, A549; assay type: cell-based; settings: Homo sapiens, CCK-8 assay, 48 h
Experimental: (§1) Cells were seeded and incubated overnight in 96-well plates at a density of 5 × 10^3 cells/well. […] A total of 10 µL CCK-8 were added to each well for additional 1 h and cell viability was measured by CCK-8 assay. Absorbance was measured at 450 nm. The IC50 values were calculated by GraphPad Prism 7 (GraphPad Software Inc., San Diego, CA, USA).

MGC803 cells = experiment: CCK-8 cell viability assay, MGC803; assay type: cell-based; settings: Homo sapiens, MGC-803; CCK-8 assay, 48 h
Experimental: as §1

SGC7901 cells = experiment: CCK-8 cell viability assay, SGC7901; assay type: cell-based; settings: Homo sapiens, SGC-7901; CCK-8 assay, 48 h
Experimental: as §1

U87 cells = experiment: CCK-8 cell viability assay, U87; assay type: cell-based; settings: Homo sapiens, U-87 MG; CCK-8 assay, 48 h
Experimental: as §1

T98G cells = experiment: CCK-8 cell viability assay, T98G; assay type: cell-based; settings: Homo sapiens, CCK-8 assay, 48 h
Experimental: as §1

ATG16L1 KO Hela cells = experiment: CCK-8 assay, ATG16L1 KO Hela cells; assay type: cell-based; settings: Homo sapiens
Experimental: as §1
Figure S4. The identification of ATG4B knockout HCT116 cells. (A) The genomic DNA of HCT116 cells in the control group transfected with GFP-sgRNA and the experimental group transfected with ATG4B-sgRNA was used as a template for PCR, and the PCR products were used for sequencing. (B) Protein levels of ATG 4B and LC3B in the control and ATG4BKO cells.
Figure S5. 163N induces cell death through targeting autophagy. (A) Hela cells were treated with […]
performed to assess cell proliferation. ( B) Hela cells or ATG16L1 KO Hela cells were treated with […]

MRC-5 cells = experiment: CCK-8 cell viability assay, normal cells MRC-5; assay type: cell-based; settings: at a higher concentration (40 µM), 48 h
Experimental: as §1
Figure S2. 163N could inhibit autophagy flux. (A) HeLa cells treated with different concentrations of
II/TUBA was calculated using ImageJ software.
was examined. The number of GFP-LC3B dots was quantified. Data are presented as mean ± SEM
was performed to assess cell viability. […]

GFP-LC3 A549 cells = experiment: GFP-LC3 dots in A549 cells stably expressing GFP-LC3; assay type: cell-based; settings: 6 h at different concentrations or 10 µM over time course
HCT116 xenograft = experiment: HCT116 mouse xenograft model; assay type: in vivo, mice
Experimental: Figure 7 163N inhibits tumor growth in a HCT116 mouse xenograft model. (A) HCT116 cells ([…]) were injected subcutaneously into the right flank of the immunodeficient nu/nu female mice. Seven days after tumor cell implantation, mice with palpable tumors were divided randomly into two groups and injected intraperitoneal on Monday, Wednesday, and Friday with either corn oil vehicle or 163N (50 mg/kg). Tumor volumes were calculated by the length and width measured by Vernier calipers every 2 d. (B) Body weight changes of mice during 28 d of exposure. (C) Tumor tissues were sectioned and subjected to H&E staining and immunohistochemistry for evaluating histological morphology, and expression of LC3B and SQSTM1. Scale bar: 50 µm. (D) TEM was used to detect the ultrastructure of the representative tumor tissues. Red arrows represent normal autolysosome structures. Data are presented as mean ± SEM. ** p < 0.01 vs VC.
The animal experimental procedures were approved by the Research Ethics Committee of Sun Yat-sen University (Guangzhou, China), ethic code: SYSU-IACUC-2018-000134. Four-week-old immunodeficient mice (nu/nu, female) were raised in a pathogen-free environment in the Experimental Animal Center of Sun Yat-sen University. Human colorectal cancer HCT116 cells (3 × 10^6) were injected subcutaneously into the right flank of the animals. Seven days after tumor cell implantation, mice with palpable tumors were divided randomly into two groups and injected intraperitoneal on Monday, Wednesday, and Friday of the following treatments: (1) vehicle control (corn oil); (2) 163N (50 mg/kg body weight) dissolved in corn oil. Tumors were measured using calipers and the tumor volume (mm^3) was calculated as follows: V = (L × W2)/2, L and W represents tumor length and width, respectively. At the end of the experiment (5 weeks after tumor implantation), the mice were given 200 µL of pentobarbital sodium (1%) by i.p. 30 min before sacrifice, tumors and organs were collected and weighed.

LC3-II in HCT116 cells = experiment: western blot for LC3 conversion, HCT116; settings: 1, 5, 10, 20 µM for 6 h; 10 µM time course
Experimental: The ratio of LC3B-II/TUBA was calculated using ImageJ software. […] The ratio of LC3B-II/TUBA was calculated using ImageJ software. […] Data are presented as mean ± SEM from three individual experiments. ** p < 0.01, *** p <0.001, ns, not significant.
20–30 µg of whole cell lysates were separated by SDS-PAGE to avoid saturation and transferred to PVDF membranes (Millipore, ISEQ00010, Burlington, MA, USA). After blocking, the membrane was incubated with primary antibodies and secondary antibodies. Specific proteins were detected using enhanced chemiluminescence developing agent (Millipore, WBULS0500). Images were taken using Kodak Image Station 4000 (Carestream Health, Rochester, NY, USA).

T1 sequence (P42574 29-175 limits assumed): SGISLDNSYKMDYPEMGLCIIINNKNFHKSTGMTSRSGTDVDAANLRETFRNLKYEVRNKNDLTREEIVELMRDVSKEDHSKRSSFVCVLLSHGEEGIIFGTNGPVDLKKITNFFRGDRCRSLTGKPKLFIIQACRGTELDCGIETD
T1 sequence (P42574 176-277 limits assumed): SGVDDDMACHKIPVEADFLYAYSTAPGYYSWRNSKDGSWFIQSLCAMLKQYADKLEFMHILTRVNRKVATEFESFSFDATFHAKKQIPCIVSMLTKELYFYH

`COc1ccc(Nc2cc(C)nc(Nc3ccc(-c4cc5ccccc5o4)cc3)n2)cc1` [Compound 163N] was tested, and the “inhibition effect on caspase-3 activity” value (caspase-3) was “no inhibition effect”, the IC50 (A549 cells) was 7.68 µM and the IC50 (MGC803 cells) was 9.33 µM. It also gave an IC50 (SGC7901 cells) of 21.2 µM, an IC50 (U87 cells) of 10.6 µM and an IC50 (T98G cells) of 7.23 µM. For the same compound, the IC50 (ATG16L1 KO Hela cells) was 12.4 µM, the “cell viability of normal cells MRC-5” value (MRC-5 cells) was “reduce the cell viability” and the GFP-LC3 dots (GFP-LC3 A549 cells) was “accumulation of GFP-LC3 dots in dose- and time-dependent manners”. For the same compound, the “LC3B and SQSTM1 in tumor tissue by immunohistochemistry” value (HCT116 xenograft; 50 mg/kg intraperitoneal) was “increased levels of LC3B and SQSTM1”, the tumor growth (HCT116 xenograft; 50 mg/kg intraperitoneal Mon/Wed/Fri, nu/nu female mice, vs vehicle) was “less prominent” and the body weight (HCT116 xenograft; 50 mg/kg intraperitoneal, 28 d, vs vehicle) was “no significant changes in body weight”. The “weight index and morphology of heart, liver, spleen, lung, kidney” value (HCT116 xenograft; 50 mg/kg intraperitoneal, vs vehicle) was “no significant changes in weight index” and the “LC3-II level, HCT116” value (LC3-II in HCT116 cells) was “dose- and time-dependent accumulation of LC3-II”.
